{
  "source": "ChEMBL document CHEMBL5321287",
  "about": "“Discovery, Synthesis, and Evaluation of Novel Dual Inhibitors of a Vascular Endothelial Growth Factor Receptor and Poly(ADP-Ribose) Polymerase for BRCA Wild-Type Breast Cancer Therapy” (J Med Chem, 2023)",
  "key": {"MDA-MB-231 [1]": {"test_system": "MDA-MB-231", "assay": "Inhibition of colony formation in human MDA-MB-231 cells at 4 uM incubated for 10 days in presence of 1:1 of compound:Olaparib by crystal violet staining based assay", "assay_type": "functional, cell-based", "settings": "time 10.0 day"}, "MCF7 [2]": {"test_system": "MCF7", "assay": "Inhibition of colony formation in human MCF7 cells at 4 uM incubated for 10 days in presence of 1:1 of compound:Olaparib by crystal violet staining based assay", "assay_type": "functional, cell-based", "settings": "time 10.0 day"}, "MDA-MB-231 [3]": {"test_system": "MDA-MB-231", "assay": "Induction of cell cycle arrest at G2/M phase in human MDA-MB-231 cells at 4 uM by Annexin-V-FLUOS staining based flow cytometry", "assay_type": "functional"}, "MDA-MB-231 [4]": {"test_system": "MDA-MB-231", "assay": "Induction of cell cycle arrest at G2/M phase in human MDA-MB-231 cells at 4 uM in presence of 1:1 of compound:Olaparib by Annexin-V-FLUOS staining based flow cytometry", "assay_type": "functional"}, "MDA-MB-231 [5]": {"test_system": "MDA-MB-231", "assay": "Antiproliferation activity against human MDA-MB-231 cells assessed as decrease in Ki67 expression at 4 uM incubated for 48 hrs in presence of 1:1 of compound:Olaparib by immunofluorescence analysis", "assay_type": "functional, cell-based"}, "MCF7 [6]": {"test_system": "MCF7", "assay": "Antiproliferation activity against human MCF7 cells assessed as decrease in Ki67 expression at 4 uM incubated for 48 hrs in presence of 1:1 of compound:Olaparib by immunofluorescence analysis", "assay_type": "functional, cell-based"}, "MDA-MB-231 [7]": {"test_system": "MDA-MB-231", "assay": "Induction of apoptosis in human MDA-MB-231 cells assessed as increase in cleaved caspase-3 level at 4 uM incubated for 2 days in presence of 1:1 of compound:Olaparib by immunoblot analysis", "assay_type": "functional, cell-based", "settings": "time 2.0 day"}, "MCF7 [8]": {"test_system": "MCF7", "assay": "Induction of apoptosis in human MCF7 cells assessed as increase in Bax level at 4 uM incubated for 2 days in presence of 1:1 of compound:Olaparib by immunoblot analysis", "assay_type": "functional, cell-based", "settings": "time 2.0 day"}, "MDA-MB-231 [9]": {"test_system": "MDA-MB-231", "assay": "Antimigratory activity against human MDA-MB-231 cells at 4 uM incubated for 1 hr in presence of 1:1 of compound:Olaparib by wound healing assay", "assay_type": "functional, cell-based"}, "MDA-MB-231 [10]": {"test_system": "MDA-MB-231", "assay": "Antimigratory activity in human MDA-MB-231 cells assessed as upregulation of E-cadherin level at 4 uM by DAPI staining based immunofluorescence analysis", "assay_type": "functional, cell-based"}, "MDA-MB-231 [11]": {"test_system": "MDA-MB-231", "assay": "Antimigratory activity in human MDA-MB-231 cells assessed as downregulation of MMP-2 level at 4 uM in presence of 1:1 of compound:Olaparib by DAPI staining based immunofluorescence analysis", "assay_type": "functional, cell-based"}, "MCF7 [12]": {"test_system": "MCF7", "assay": "Antimigratory activity in human MCF7 cells assessed as upregulation of E-cadherin level at 4 uM incubated for 2 days by immunoblot analysis", "assay_type": "functional, cell-based", "settings": "time 2.0 day"}, "MCF7 [13]": {"test_system": "MCF7", "assay": "Antimigratory activity in human MCF7 cells assessed as downregulation of MMP-2 level at 4 uM incubated for 2 days by immunoblot analysis", "assay_type": "functional, cell-based", "settings": "time 2.0 day"}, "MCF7 [14]": {"test_system": "MCF7", "assay": "Antimigratory activity in human MCF7 cells assessed as downregulation of MMP-2 level at 4 uM incubated for 2 days in presence of 1:1 of compound:Olaparib by immunoblot analysis", "assay_type": "functional, cell-based", "settings": "time 2.0 day"}, "MCF7 [15]": {"test_system": "MCF7", "assay": "Downregulation of Olaparib-induced PAR expression in human MCF7 cells at 4 uM incubated for 2 days by Western blot analysis", "assay_type": "functional, cell-based", "settings": "time 2.0 day"}, "MCF7 [16]": {"test_system": "MCF7", "assay": "Induction of hypoxia in human MCF7 cells assessed as upregulation of HIF-1alpha level at 4 uM incubated for 2 days in presence 1:1 of Olaparib by Western blot analysis", "assay_type": "functional, cell-based", "settings": "time 2.0 day"}, "MCF7 [17]": {"test_system": "MCF7", "assay": "Induction of DNA damage in human MCF7 cells assessed as increase in comet tail length at 4 uM in presence 1:1 of Olaparib by alkaline comet assay", "assay_type": "functional, cell-based"}, "MDA-MB-231 [18]": {"test_system": "MDA-MB-231", "assay": "Induction of DNA damage in human MDA-MB-231 cells assessed as increase in gamma-H2AX level at 4 uM incubated for 48 hrs in presence of 1:1 of compound:Olaparib by DAPI staining based immunofluorescence analysis", "assay_type": "functional, cell-based"}, "MCF7 [19]": {"test_system": "MCF7", "assay": "Induction of DNA damage in human MCF7 cells assessed as increase in gamma-H2AX level at 4 uM incubated for 48 hrs by DAPI staining based immunofluorescence analysis", "assay_type": "functional, cell-based"}, "MCF7 [20]": {"test_system": "MCF7", "assay": "Induction of DNA damage in human MCF7 cells assessed as increase in gamma-H2AX level at 4 uM incubated for 48 hrs in presence of 1:1 of compound:Olaparib by DAPI staining based immunofluorescence analysis", "assay_type": "functional, cell-based"}, "MDA-MB-231 [21]": {"test_system": "MDA-MB-231", "assay": "Induction of HR DNA repair in human MDA-MB-231 cells assessed as decrease in RAD51 level at 4 uM incubated for 48 hrs in presence of 1:1 of compound:Olaparib by DAPI staining based immunofluorescence analysis", "assay_type": "functional, cell-based"}, "MDA-MB-231 [22]": {"test_system": "MDA-MB-231", "assay": "Antiinvasive activity against human MDA-MB-231 cells at 4 uM incubated for 12 hrs in presence of 1:1 of compound:Olaparib by transwell assay", "assay_type": "functional, cell-based"}, "MDA-MB-231 [23]": {"test_system": "MDA-MB-231", "assay": "Antiproliferation activity against human MDA-MB-231 cells xenografted in BALB/c nude mouse assessed as decrease in Ki67 expression at 50 mg/kg, po for 14 days in presence of 1:1 of compound:Olaparib by H and E staining based IHC analysis", "assay_type": "functional, organism-based", "settings": "time 14.0 day"}, "[24]": {"target": "Vascular endothelial growth factor receptor 1 (Homo sapiens, UniProt P17948)", "sequence (P17948 whole entry)": "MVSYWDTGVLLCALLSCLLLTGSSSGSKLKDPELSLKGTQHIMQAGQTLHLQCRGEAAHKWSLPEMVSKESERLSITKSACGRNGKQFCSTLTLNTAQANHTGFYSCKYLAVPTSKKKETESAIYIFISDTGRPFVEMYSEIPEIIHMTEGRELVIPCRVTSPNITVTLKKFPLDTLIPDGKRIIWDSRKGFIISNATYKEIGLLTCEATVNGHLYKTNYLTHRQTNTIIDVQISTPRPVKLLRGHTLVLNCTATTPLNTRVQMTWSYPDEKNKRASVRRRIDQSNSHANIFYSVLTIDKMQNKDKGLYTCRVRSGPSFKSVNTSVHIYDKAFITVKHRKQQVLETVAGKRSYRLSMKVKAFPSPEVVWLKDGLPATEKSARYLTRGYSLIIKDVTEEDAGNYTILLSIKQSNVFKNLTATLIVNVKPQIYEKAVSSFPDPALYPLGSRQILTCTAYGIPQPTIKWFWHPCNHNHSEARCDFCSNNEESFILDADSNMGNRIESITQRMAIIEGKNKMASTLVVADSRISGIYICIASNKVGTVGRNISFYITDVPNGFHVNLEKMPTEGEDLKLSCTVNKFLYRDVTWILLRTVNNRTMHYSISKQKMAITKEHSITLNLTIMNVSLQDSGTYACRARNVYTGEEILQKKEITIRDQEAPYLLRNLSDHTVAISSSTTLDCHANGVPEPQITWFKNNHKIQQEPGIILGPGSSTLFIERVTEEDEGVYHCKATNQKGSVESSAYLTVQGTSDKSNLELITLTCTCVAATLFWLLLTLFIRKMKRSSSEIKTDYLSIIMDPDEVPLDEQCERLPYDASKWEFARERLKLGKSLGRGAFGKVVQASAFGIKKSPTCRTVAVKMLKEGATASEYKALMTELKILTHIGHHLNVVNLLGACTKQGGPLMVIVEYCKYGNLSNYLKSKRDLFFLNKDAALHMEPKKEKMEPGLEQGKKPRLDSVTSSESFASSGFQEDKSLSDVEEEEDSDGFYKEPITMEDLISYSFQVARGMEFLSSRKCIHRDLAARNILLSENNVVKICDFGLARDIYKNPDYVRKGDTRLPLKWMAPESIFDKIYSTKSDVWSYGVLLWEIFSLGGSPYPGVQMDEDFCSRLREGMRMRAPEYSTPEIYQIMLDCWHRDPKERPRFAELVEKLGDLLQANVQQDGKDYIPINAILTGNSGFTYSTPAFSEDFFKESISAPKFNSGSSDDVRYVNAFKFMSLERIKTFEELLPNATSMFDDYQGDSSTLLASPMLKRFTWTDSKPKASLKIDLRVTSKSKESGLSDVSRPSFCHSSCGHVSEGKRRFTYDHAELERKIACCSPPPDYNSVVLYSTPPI", "assay": "Inhibition of VEGFR1 phosphorylation at tyr1333 residue in human MDA-MB-231 cells xenografted in BALB/c nude mouse at 50 mg/kg, po for 14 days in presence of 1:1 of compound:Olaparib by H and E staining based IHC analysis", "assay_type": "organism-based", "settings": "time 14.0 day"}, "[25]": {"target": "Poly [ADP-ribose] polymerase 1 (Homo sapiens, UniProt P09874)", "sequence (P09874 whole entry)": "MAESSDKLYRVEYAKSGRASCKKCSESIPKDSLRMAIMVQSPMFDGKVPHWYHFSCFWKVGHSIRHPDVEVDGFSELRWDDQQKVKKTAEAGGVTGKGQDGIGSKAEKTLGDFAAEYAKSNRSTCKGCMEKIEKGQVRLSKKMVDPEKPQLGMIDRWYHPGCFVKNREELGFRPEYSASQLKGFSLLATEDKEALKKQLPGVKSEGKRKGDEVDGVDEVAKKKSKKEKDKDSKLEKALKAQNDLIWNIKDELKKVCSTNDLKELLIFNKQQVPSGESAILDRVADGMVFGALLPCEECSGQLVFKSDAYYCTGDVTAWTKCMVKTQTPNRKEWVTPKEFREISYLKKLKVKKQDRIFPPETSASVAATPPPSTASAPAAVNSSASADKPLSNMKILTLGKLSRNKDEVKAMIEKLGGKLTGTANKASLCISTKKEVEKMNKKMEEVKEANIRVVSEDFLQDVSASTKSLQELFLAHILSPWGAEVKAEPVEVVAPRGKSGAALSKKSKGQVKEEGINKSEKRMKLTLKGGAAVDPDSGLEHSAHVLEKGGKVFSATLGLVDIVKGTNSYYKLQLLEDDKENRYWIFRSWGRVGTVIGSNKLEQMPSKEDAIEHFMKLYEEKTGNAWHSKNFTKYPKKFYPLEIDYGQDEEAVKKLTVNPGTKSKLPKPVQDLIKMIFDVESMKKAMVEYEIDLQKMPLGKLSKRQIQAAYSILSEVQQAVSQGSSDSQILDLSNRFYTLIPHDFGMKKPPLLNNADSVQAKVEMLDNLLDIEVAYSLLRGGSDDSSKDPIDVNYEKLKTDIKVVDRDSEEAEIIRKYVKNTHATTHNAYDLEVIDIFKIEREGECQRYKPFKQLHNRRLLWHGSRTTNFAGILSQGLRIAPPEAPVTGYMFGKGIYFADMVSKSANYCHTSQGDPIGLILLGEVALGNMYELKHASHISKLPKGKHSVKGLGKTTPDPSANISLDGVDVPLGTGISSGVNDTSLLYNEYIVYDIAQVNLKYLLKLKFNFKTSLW", "assay": "Inhibition of PARP1 in human MDA-MB-231 cells xenografted in BALB/c nude mouse at 50 mg/kg, po for 14 days in presence of 1:1 of compound:Olaparib by H and E staining based IHC analysis", "assay_type": "organism-based", "settings": "time 14.0 day"}, "MDA-MB-231 [26]": {"test_system": "MDA-MB-231", "assay": "Antimigratory activity in human MDA-MB-231 cells xenografted in BALB/c nude mouse assessed as downregulation of MMP2 level at 50 mg/kg, po for 14 days in presence of 1:1 of compound:Olaparib by H and E staining based IHC analysis", "assay_type": "functional, organism-based", "settings": "time 14.0 day"}, "MDA-MB-231 [27]": {"test_system": "MDA-MB-231", "assay": "Antimigratory activity in human MDA-MB-231 cells xenografted in BALB/c nude mouse assessed as upregulation of E-cadherin level at 50 mg/kg, po for 14 days in presence of 1:1 of compound:Olaparib by H and E staining based IHC analysis", "assay_type": "functional, organism-based", "settings": "time 14.0 day"}, "MDA-MB-231 [28]": {"test_system": "MDA-MB-231", "assay": "Induction of HR DNA repair in human MDA-MB-231 cells xenografted in BALB/c nude mouse assessed as decrease in BRCA1 level at 50 mg/kg, po for 14 days in presence of 1:1 of compound:Olaparib by Western blot analysis", "assay_type": "functional, organism-based", "settings": "time 14.0 day"}, "MDA-MB-231 [29]": {"test_system": "MDA-MB-231", "assay": "Induction of DNA damage in human MDA-MB-231 cells xenografted in BALB/c nude mouse assessed as increase in gamma-H2AX level at 50 mg/kg, po for 14 days in presence of 1:1 of compound:Olaparib by H and E staining based IHC analysis", "assay_type": "functional, organism-based", "settings": "time 14.0 day"}, "MDA-MB-231 [30]": {"test_system": "MDA-MB-231", "assay": "Antimigratory activity in human MDA-MB-231 cells xenografted in lungs of BALB/c nude mouse assessed as increase in E-cadherin level in lungs at 50 mg/kg administered once a day measured after 14 days in presence of 1:1 of compound:Olaparib by IHC analysis", "assay_type": "functional, organism-based", "settings": "time 14.0 day"}, "MDA-MB-436": {"test_system": "MDA-MB-436", "assay": "cells", "settings": "Homo sapiens"}, "HUVEC": {"test_system": "HUVEC", "assay": "cells", "settings": "Homo sapiens, 48 h"}},
  "note": "Active and inactive are the calls of the source. The calls are words filed in the database; no cut-off is given here.",
  "data": [
    {"molecule": "Cc1ccc(Nc2nccc(N(C)c3ccc4c(C)n(C)nc4c3)n2)cc1S(N)(=O)=O", "note": "[PAZOPANIB]", "values": [
      {"measurement": "inhibition", "setting": "MDA-MB-231 [1]", "value": "Active"},
      {"measurement": "inhibition", "setting": "MCF7 [2]", "value": "Active"},
      {"measurement": "Activity", "setting": "MDA-MB-231 [3]", "value": "Active"},
      {"measurement": "Activity", "setting": "MDA-MB-231 [4]", "value": "Active"},
      {"measurement": "Activity", "setting": "MDA-MB-231 [5]", "value": "Active"},
      {"measurement": "Activity", "setting": "MCF7 [6]", "value": "Active"},
      {"measurement": "Activity", "setting": "MDA-MB-231 [7]", "value": "Active"},
      {"measurement": "Activity", "setting": "MCF7 [8]", "value": "Active"},
      {"measurement": "Activity", "setting": "MDA-MB-231 [9]", "value": "Active"},
      {"measurement": "Activity", "setting": "MDA-MB-231 [10]", "value": "Active"},
      {"measurement": "Activity", "setting": "MDA-MB-231 [11]", "value": "Active"},
      {"measurement": "Activity", "setting": "MCF7 [12]", "value": "Active"},
      {"measurement": "Activity", "setting": "MCF7 [13]", "value": "Active"},
      {"measurement": "Activity", "setting": "MCF7 [14]", "value": "Active"},
      {"measurement": "Activity", "setting": "MCF7 [15]", "value": "inactive"},
      {"measurement": "Activity", "setting": "MCF7 [16]", "value": "Active"},
      {"measurement": "Activity", "setting": "MCF7 [17]", "value": "Active"},
      {"measurement": "Activity", "setting": "MDA-MB-231 [18]", "value": "Active"},
      {"measurement": "Activity", "setting": "MCF7 [19]", "value": "Active"},
      {"measurement": "Activity", "setting": "MCF7 [20]", "value": "Active"},
      {"measurement": "Activity", "setting": "MDA-MB-231 [21]", "value": "Active"},
      {"measurement": "Activity", "setting": "MDA-MB-231 [22]", "value": "Active"},
      {"measurement": "Activity", "setting": "MDA-MB-231 [23]", "value": "Active"},
      {"measurement": "inhibition", "setting": "[24]", "value": "Active"},
      {"measurement": "inhibition", "setting": "[25]", "value": "Active"},
      {"measurement": "Activity", "setting": "MDA-MB-231 [26]", "value": "Active"},
      {"measurement": "Activity", "setting": "MDA-MB-231 [27]", "value": "Active"},
      {"measurement": "Activity", "setting": "MDA-MB-231 [28]", "value": "Active"},
      {"measurement": "Activity", "setting": "MDA-MB-231 [29]", "value": "Active"},
      {"measurement": "Activity", "setting": "MDA-MB-231 [30]", "value": "Active"},
      {"measurement": "IC50", "setting": "MDA-MB-436", "value": "> 10", "unit": "µM"},
      {"measurement": "IC50", "setting": "HUVEC", "value": 4.6, "unit": "µM"}
    ]}
  ]
}
